Source: patent US20260365696A1, “INHIBITORS OF PTP1B / NCK1 INTERACTION AND METHODS OF MAKING AND USING SAME” (Radella Pharmaceuticals LLC, priority 2023, published 2026)

Key:
SH3-2 domain of NCK1 = target: T1, SH3-2 domain of NCK1 (Homo sapiens, UniProt P16333); test: Isothermal titration calorimetry (ITC) binding to NCK1 SH3-2 domain
T1 construct: To amplify the NCK1 SH3-2 domain, the primers; 10xHis tag with TEV site (vector pSF-OXB20-NH2-10HIS) (N, cleaved yes); made in house; host or cells: E. coli C43(DE3)
Summary of the method: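 Measured at 25 °C, pH 8.0 (10 mM sodium buffer, sodium chloride), by calorimetric titration of 3-7.5 mM peptide into 0.125-0.3 mM recombinant NCK1 SH3-2 domain with His tag removed, using 20 injections. Affinities are means of three experiments, fitted with stoichiometry 0.8-1.2.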

[1] = 28-day pharmacodynamic and liver toxicity study in C57BL/6 mice; type: in vivo, mouse; details: 28 days; for body weight: 15 or 30 mg/kg IP daily; for signs of physiological or hepatic toxicity: 15 or 30 mg/kg daily IP
From the text: Animals: C57BL/6 male mice (−3 months) were purchased from Charles River, UK. All animals were housed and tested following European (Directive on the Protection of Animals used for Scientific Purposes, 2010/63/EU) and UK Home Office regulations. Experiments were approved by the University Ethics Board and carried out in accordance with the Animal (Scientific Procedures) Act 1986 and following ARRIVE guidelines.
Treatments: Mice were randomized in to the five experimental groups: Control (n=9); MD17, 15 mg/kg (n=6); MD17, 30 mg/kg (n=6); MD20, 15 mg/kg (n=6); and MD20, 30 mg/kg (n=6). MD17 and MD20 compounds were administered to mice once daily via intraperitoneal (IP) injection for a period of 28 consecutive days at a dose of either 15 or 30 mg/kg. Peptides were kept in −20 °C and dissolved in sterile phosphate buffered saline (PBS) freshly every day before the injection. Control mice received a daily PBS injection. Three mice died during the study, and the final number of animals in each group was: Control (n=9); MD17, 15 mg/kg (n=5); MD17, 30 mg/kg, (n=6); MD20, 15 mg/kg (n=5); and MD20, 30 mg/kg (n=5). All mice had ad libitum access to food and water and were kept in a 12 h light/dark cycle.
Bodyweights and body mass composition: body weights were recorded during the study and fat and lean mass composition was analysed using an EchoMRI scanner (EchoMedical Systems, Houston, TX, U.S.A.).
Fasted glucose: All animals were 5 h-fasted and tail glucose measured using an AlphaTRAK 2 glucose strips and glucometer (Abbot, UK).
Serum assays: Trunk-derived blood was collected from 5 h-fasted mice in to serum separator microtubes and kept at −80 °C. Serum was used for insulin (#EZRMI-13K, Merck), leptin (#90030, Crystal Chem), free fatty acids (FFA; #mak044, Sigma-Aldrich), alanine and aspartate aminotransferases (ALT and AST; #ab105134 and #ab105135, Abcam) analyses.
Statistical analyses: Data were expressed as means±SEM and were analysed using one- or two-way ANOVA with Bonferroni post hoc tests, as appropriate. GraphPad Prism (V8, GraphPad Software, Inc., San Diego, California, USA) was used for analyses. P-values <0.05 were considered significant.

Substance | Kd (SH3-2 domain of NCK1; Alanine scanning of the MD20 6-mer peptide, ITC, 25 °C, pH 8.0) [µM] | Kd (SH3-2 domain of NCK1; Peptide truncation analysis, ITC, 25 °C, pH 8.0) [µM] | Kd (SH3-2 domain of NCK1; ability to bind SH3-2 domain of NCK1, stated in text) [µM] | % change in fat mass ([1]; 30 mg/kg IP daily, vs control) | percentage change in body weight pre- versus post-treatment ([1]; 30 mg/kg IP daily, vs control) | body weight [1] | signs of physiological or hepatic toxicity [1] | Kd (SH3-2 domain of NCK1; Alanine scanning of the MD17 15-mer peptide, ITC, 25 °C, pH 8.0) [µM]
Ac-PRPPKR-NH2 [MD20, Ac-PRPPKR-NH2] | ≤ 300 | ≤ 300 | < 193 | decreased | significant decrease in % change | No statistically significant differences | did not induce any obvious signs of physiological or hepatic toxicity | –
Ac-PPPEHIPPPPRPPKR-NH2 [MD17] | – | – | – | – | – | No statistically significant differences | did not induce any obvious signs of physiological or hepatic toxicity | ≤ 300
